Each structure is given as a SMILES string.

In this test the target is T1, human bradykinin B2 receptor (hB2R) (Homo sapiens, UniProt P30411).
T1 sequence (P30411 1-391): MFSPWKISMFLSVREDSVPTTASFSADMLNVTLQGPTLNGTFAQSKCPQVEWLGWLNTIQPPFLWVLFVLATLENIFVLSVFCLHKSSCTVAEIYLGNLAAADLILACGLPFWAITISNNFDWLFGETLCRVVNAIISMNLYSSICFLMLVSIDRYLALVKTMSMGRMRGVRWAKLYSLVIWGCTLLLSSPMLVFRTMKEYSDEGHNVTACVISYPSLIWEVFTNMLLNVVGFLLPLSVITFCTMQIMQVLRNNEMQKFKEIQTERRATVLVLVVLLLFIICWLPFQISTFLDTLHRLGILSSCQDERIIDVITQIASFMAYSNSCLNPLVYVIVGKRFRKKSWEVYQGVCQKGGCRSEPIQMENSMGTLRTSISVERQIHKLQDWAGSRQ
The test is described as follows: cell-based human bradykinin B2 receptor calcium mobilization (hB2R-CaM) assay. Conditions: HTS041C cells, bradykinin at EC80, calcium mobilization; read-out: IC50-value towards human bradykinin B2 receptor (hB2R). The text has this:
The following cell-based human bradykinin B2 receptor calcium mobilization (hB2R-CaM) assay was used to determine the antagonistic activity of compounds selected from the example compounds Nos. 1 to 168 towards human bradykinin B2 receptor (hB2R). The assay is defined herein as a standard in vitro B2 receptor activity assay, which can be used to determine IC50 values of the compounds according to the present invention, e. g. the compounds shown in Examples 1-11.
The antagonistic activity of compounds according to the present invention was investigated with the hB2R-CaM assay using the B2 Bradykinin Receptor Stable Cell Line HTS041C (Eurofins, St. Charles MO) and the FLIPR Calcium 6 Assay Kit (Molecular Devices, Wokingham, UK) according to the instructions of the providers. CaM assay measurements were performed with a Flexstation 3 System (Molecular Devices) which allows the precise addition of compounds (B2R antagonists) and bradykinin (B2R agonist) to the cells and adjacent continuous recording of the time-dependent CaM assay signals.
HTS041C cells were cultured in high glucose DMEM cell culture medium (Lonza) supplemented with 10% heat-inactivated FBS (PAN Biotech), 10 mM HEPES, Penicillin/Streptomycin (200 U/mL, 200 μg/mL), 1× non-essential amino acids (Lonza), and 250 μg/mL G418 (Invivogen) in cell incubator at 37° C. in a 5% CO2 atmosphere.
One day before the CaM assay experiments cells were seeded in 200 μL DMEM cell culture medium with reduced FBS (5%) and without G418 on clear bottom black 96 well plates (ThermoFisher #165305). Cell starvation was carried out by incubation (37° C., 5% CO2) of 70.000 cells/well for 24 h to 28 h. Immediately prior calcium dye-loading the medium was carefully aspirated and cells were washed with Hank's balanced salt solution (HBSS, Gibco) containing Ca^2+, Mg^2+ and 20 mM HEPES, adjusted to pH 7.4 (HBSS+). Calcium Dye Loading of the Cells:
For calcium dye-loading one FLIPR 6 assay aliquot was dissolved in 20 mL HBSS+. 150 μL of the dye loading solution was added to cell plate and incubated for 120 min at 37° C. and 5% CO2. After dye loading the cell plate was immediately transferred to the pre-warmed (37° C.) Flexstation 3 System for CaM assaying.
Freshly prepared compound (B2 receptor antagonists) dilution series (8 pt, n=2) and bradykinin (B2 receptor agonist) solution in non-binding plates (Costar) were transferred to the Flexstation System (source plate) shortly before starting the experiment. Bradykinin was added in EC80 concentration determined in n>3 preliminary experiments with 8 pt concentration response curves (n=8)). CaM assay was executed by Flexstation 3 System starting with recording of calcium-sensitive dye fluorescence in bottom-read Flex modus with ex/em=485 nm/525 nm, cut off(em)=[…]. After 20 s, 50 μL of 4-fold concentrated compound dilutions were added to the cells resulting in a final DMSO (Sigma) concentration of 0.1% in the cell plate. CaM signals were monitored for 80 s after additions for detection of potential agonistic activities. Prior to bradykinin stimulus compound- and vehicle-treated cells were incubated for 25 min at 37° C. within the Flexstation System. Then 50 μL of a 5-fold concentrated bradykinin solution (HBSS+, 0.1% DMSO) was added to trigger CaM signals (Read out: Max-Min values) which were measured for 80 s post bradykinin stimulus.
IC50 determinations were performed by 4 parameter logistic model curve fitting of the 8 pt (n=2) compound concentration response curves using XLFIT (IDBS) software.
Relative IC50 values of the test compounds were determined with the same hB2R-CaM assay as in Example 12.
As for `[2H][C@@](C)(NC(=O)[C@@H](C)F)c1cc(F)cc(Cl)c1COc1cccc2c(-c3ncnn3C)cc(C)nc12` [Compound 211], the half-inhibitory concentration (IC50) was no more than 50 nM.

`Cc1cc(-n2nc(C)nc2C)c2cccc(OCc3c(Cl)cc(F)cc3[C@H](C)NC(=O)COC(F)(F)F)c2n1` [Compound 139]: the IC50 was no more than 50 nM.

As to `Cc1cc(-n2cc(F)cn2)c2cccc(OCc3c(Cl)cc(F)cc3[C@H](C)NC(=O)C3(C)COC3)c2n1` [Compound 58], the half-inhibitory concentration (IC50) was no more than 50 nM.

For `CC[C@@H](O)C(=O)N[C@@H](C)c1cc(F)cc(Cl)c1COc1cccc2c(-n3ncnc3C)cc(C)nc12` [Compound 99], the 50% inhibitory concentration (IC50) was in the range of 51 to 250 nM.

`Cc1cc(-n2ncnc2C)c2cccc(OCc3c(Cl)cc(F)cc3[C@H](C)NC(=O)CC(F)F)c2n1` [Compound 173]: the IC50 is no more than 50 nM.

Take `CC[C@H](NC(=O)c1cocn1)c1cc(F)cc(Cl)c1COc1cccc2c(-c3ncnn3C)cc(C)nc12` [Compound 155]: the IC50 was no more than 50 nM.

Turning to `[2H][C@@](C)(NC(=O)[C@H](C)F)c1cc(F)cc(Cl)c1COc1cccc2c(-c3ncnn3C)cc(C)nc12` [Compound 213], the IC50 is no more than 50 nM.

As for `Cc1cc(-n2ncnc2C)c2cccc(OCc3c(Cl)cc(F)cc3[C@H](C)NC(=O)C(C)(C)O)c2n1` [Compound 160], the IC50 was no more than 50 nM.

In the case of `CCc1ncnn1-c1cc(C)nc2c(OCc3c(Cl)cc(F)cc3[C@H](C)NC(=O)COC(F)F)cccc12` [Compound 169], the IC50 was no more than 50 nM.

On to `Cc1cc(-c2ncnn2C)c2cccc(OCc3c(Cl)cc(F)cc3[C@H](C)NC(=O)c3cnco3)c2n1` [Compound 120], for which the IC50 is no more than 50 nM.

On to `CO[C@@H](C)C(=O)N[C@@H](C)c1cc(F)cc(Cl)c1COc1cccc2c(-n3cc(F)cn3)cc(C)nc12` [Compound 16], for which the IC50 is no more than 50 nM.

Regarding `Cc1cc(-n2cc(F)cn2)c2cccc(OCc3c(Cl)cc(F)cc3[C@H](C)NC(=O)[C@H](O)C(C)C)c2n1` [Compound 67], the concentration for half-maximal inhibition (IC50) lay within 51 to 250 nM.

`CO[C@H](C)C(=O)N[C@@H](C)c1cc(F)cc(Cl)c1COc1cccc2c(-n3cc(F)cn3)cc(C)nc12` [Compound 17]: the IC50 is no more than 50 nM.

As for `Cc1cc(-c2ncnn2C)c2cccc(OCc3c(Cl)cc(F)cc3[C@H](C)NC(=O)c3ccccn3)c2n1` [Compound 164], the IC50 is no more than 50 nM.

Regarding `Cc1cc(-c2ncnn2C)c2cccc(OCc3c(Cl)cc(F)cc3[C@H](C)NC(=O)CC(F)F)c2n1` [Compound 197], the IC50 was no more than 50 nM.

`Cc1cc(-n2cc(F)cn2)c2cccc(OCc3c(Cl)cc(F)cc3[C@H](C)NC(=O)[C@@H](O)CCN)c2n1` [Compound 66]: the IC50 fell in the range of 51 to 250 nM.

For `Cc1cc(-n2ncnc2C)c2cccc(OCc3c(Cl)cc(F)cc3[C@H](C)NC(=O)c3ccon3)c2n1` [Compound 157], the half-maximal inhibitory concentration (IC50) was no more than 50 nM.

With `Cc1cc(-n2cc(F)cn2)c2cccc(OCc3c(Cl)cc(F)cc3[C@H](C)NC(=O)COC(F)(F)F)c2n1` [Compound 121], the half-maximal inhibitory concentration (IC50) was no more than 50 nM.

On to `Cc1cc(-n2nc(C)nc2C)c2cccc(OCc3c(Cl)cc(F)cc3[C@H](C)NC(=O)c3ccon3)c2n1` [Compound 135], for which the IC50 lay in the range of 51 to 250 nM.

Turning to `Cc1cc(-n2cc(F)cn2)c2cccc(OCc3c(Cl)cc(F)cc3[C@H](C)NC(=O)[C@](C)(O)C(F)(F)F)c2n1` [Compound 53], the IC50 was 251 to 1000 nM.

Consider `Cc1cc(-c2ncnn2C)c2cccc(OCc3c(Cl)cc(F)cc3[C@H](C)NC(=O)C3(C)CCCO3)c2n1` (stereo partly shown) [Compound 119], for which the IC50 is 51 to 250 nM.

Regarding `COC(=O)[C@H](O)CC(=O)N[C@@H](C)c1cc(F)cc(Cl)c1COc1cccc2c(-n3cc(F)cn3)cc(C)nc12` [Compound 69], the IC50 is 51 to 250 nM.

Regarding `Cc1cc(-n2cc(F)cn2)c2cccc(OCc3c(Cl)cc(F)cc3[C@H](C)NC(=O)C3CCO3)c2n1` (stereo partly shown) [Compound 56], the IC50 is no more than 50 nM.

Turning to `Cc1cc(-n2cc(F)cn2)c2cccc(OCc3c(Cl)cc(F)cc3[C@H](C)NC(=O)[C@@H](C)OC(F)F)c2n1` [Compound 93], the IC50 lay within 51 to 250 nM.

As to `Cc1cc(-c2ccnn2C)c2cccc(OCc3c(Cl)cc(F)cc3[C@H](C)NC(=O)c3cnco3)c2n1` [Compound 196], the IC50 is no more than 50 nM.

Regarding `Cc1cc(-c2ncnn2C)c2cccc(OCc3c(Cl)cc(F)cc3[C@H](C)NC(=O)c3cccnc3)c2n1` [Compound 162], the IC50 was no more than 50 nM.

On to `Cc1cc(-n2cc(F)cn2)c2cccc(OCc3c(Cl)cc(F)cc3[C@H](C)NC(=O)c3c(C)noc3C)c2n1` [Compound 87], for which the IC50 lay within 51 to 250 nM.

As for `Cc1cc(-n2cc(F)cn2)c2cccc(OCc3c(Cl)cc(F)cc3[C@H](C)NC(=O)[C@H]3COC(C)(C)O3)c2n1` [Compound 62], the IC50 lay in the range of 51 to 250 nM.

With `CCOCC(=O)N[C@@H](C)c1cc(F)cc(Cl)c1COc1cccc2c(-n3cc(F)cn3)cc(C)nc12` [Compound 18], the IC50 was no more than 50 nM.

Regarding `Cc1cc(-c2[nH]ncc2C)c2cccc(OCc3c(Cl)cc(F)cc3[C@H](C)NC(=O)[C@@H](C)O)c2n1` [Compound 188], the concentration for half-maximal inhibition (IC50) was no more than 50 nM.

As for `Cc1cc(-n2nccn2)c2cccc(OCc3c(Cl)cc(F)cc3[C@H](C)NC(=O)[C@@H](C)O)c2n1` [Compound 31], the IC50 was in the range of 51 to 250 nM.

Take `Cc1cc(-n2cc(F)cn2)c2cccc(OCc3c(Cl)cc(F)cc3[C@H](C)NC(=O)[C@@](C)(O)C(F)(F)F)c2n1` [Compound 52]: the half-maximal inhibitory concentration (IC50) lay within 251 to 1000 nM.

Consider `CC[C@@H](O)C(=O)N[C@@H](C)c1cc(F)cc(Cl)c1COc1cccc2c(-n3cc(F)cn3)cc(C)nc12` [Compound 24], for which the IC50 lay in the range of 51 to 250 nM.

Consider `Cc1cc(-n2ncnc2C)c2cccc(OCc3c(Cl)cc(F)cc3[C@H](C)NC(=O)c3cc(C)on3)c2n1` [Compound 158], for which the IC50 is no more than 50 nM.

With `CC[C@H](NC(=O)C(F)F)c1cc(F)cc(Cl)c1COc1cccc2c(-n3cc(F)cn3)cc(C)nc12` [Compound 151], the IC50 lay within 51 to 250 nM.

In the case of `CC[C@H](NC(=O)COC(F)F)c1cc(F)cc(Cl)c1COc1cccc2c(-c3ncnn3C)cc(C)nc12` [Compound 131], the half-inhibitory concentration (IC50) was no more than 50 nM.

As for `Cc1cc(-n2ncnc2C)c2cccc(OCc3c(Cl)cc(F)cc3[C@H](C)NC(=O)CC(F)(F)F)c2n1` [Compound 179], the IC50 is no more than 50 nM.

For `CC[C@H](NC(=O)c1ccon1)c1cc(F)cc(Cl)c1COc1cccc2c(-c3ncnn3C)cc(C)nc12` [Compound 150], the IC50 was no more than 50 nM.

Consider `Cc1cc(-n2cc(F)cn2)c2cccc(OCc3c(Cl)cc(F)cc3[C@H](C)NC(=O)c3cc(C)n(C)n3)c2n1` [Compound 86], for which the IC50 fell in the range of 51 to 250 nM.

On to `CC[C@H](NC(=O)COC(F)(F)F)c1cc(F)cc(Cl)c1COc1cccc2c(-n3ncnc3C)cc(C)nc12` [Compound 167], for which the IC50 is no more than 50 nM.

In the case of `CCn1ncnc1-c1cc(C)nc2c(OCc3c(Cl)cc(F)cc3[C@H](C)NC(=O)C(C)(C)O)cccc12` [Compound 143], the IC50 was no more than 50 nM.

Consider `Cc1cc(-n2cc(F)cn2)c2cccc(OCc3c(Cl)cc(F)cc3[C@H](C)NC(=O)C3COC3)c2n1` [Compound 57], for which the half-maximal inhibitory concentration (IC50) is no more than 50 nM.

Consider `Cc1cc(-c2ncnn2C)c2cccc(OCc3c(Cl)cc(F)cc3[C@H](C)NC(=O)c3cc(C)on3)c2n1` [Compound 127], for which the IC50 is no more than 50 nM.

Values taken from patent US11820756B2, “Bradykinin B2 receptor antagonists” (Pharvaris Netherlands B.V., priority 2017, dated 2023).
